Results from patent EP0251827A2, “New cyclic ether derivatives, their preparation and their use” (Sankyo Company Limited, priority 1986, dated 1988).

System: PAF-induced hypotension
Experiment: Inhibition of PAF-induced hypotension
Assay type: in vivo, rats of the Wistar-Imamichi strain
Conditions: Rattus norvegicus, iv; 50% inhibitory dose from dose-response curve for inhibition of PAF-induced hypotension; rats; read-out: Inhibition of Hypotension ID50
Procedure: The test animals employed were rats of the Wistar-Imamichi strain, each weighing between 350 and 450 g.
Under Inactin anesthesia (90 mg/kg administered intraperitoneally) the left femoral artery and vein of each test animal were cannulated to enable the arterial blood pressure to be monitored continuously and for drug administration, respectively. At intervals of about 5 minutes, each animal was given by intravenous injection 10 ng/kg of synthetic I-C16:0 PAF until a steady hypotensive response was achieved. At this time, the drug to be tested was administered by intravenous injection in doses increasing cumulatively by a factor of 4. Within I minute of this injection, a further 10 ng/kg of the IC16:0 PAF was administered. The hypotensive response to PAF was inhibited by the test drug in a dose-related manner.
The PAF was administered in the form of a solution in physiological saline containing 0.25% w/v bovine serum albumin. The test drugs were dissolved in physiological saline containing 20% v/v ethanol.
The 50% inhibitory dose (ID 50 ) was calculated from the dose-response curve constructed for the inhibition of PAF-induced hypotension.
This test was carried out using compounds of the invention, as well as the prior art compound CV-3988, disclosed in US Patent No. 4,408,052 and represented by the foregoing formula (B).

CCCCCCCCCCCCCCCCCCNC(=O)OCC(COP(=O)([O-])OCC[n+]1ccsc1)OC (stereo not shown) [CV - 3988] was tested. Which ED50 did it give?
The ED50 was 0.42 mg/kg.
